We go through one substance from US12570694B2, “Peptides and pharmaceutical, nutraceutical or veterinary compositions for hair loss prevention and/or treatment” (VYTRUS BIOTECH, S.L., priority 2016, dated 2026).

Test [1] relates to insulin growth factor 1 (IGF-1). Briefly: IGF-1 levels in secretomas of treated HFDPC. In kind it is cell-based, human. The conditions noted are these: 24 h and 48 h after treatment, data not shown. How it is done:
Secretomas (supernatants that could be recovered from the HFDPC cultures challenged with the tested materials of Table 1) were analysed for detecting the presence and levels of animal cell growth factors and of microRNAs associated with hair growth in dermal papilla. […] Similar results (at 24 and 48 h) were observed when analysing the levels of fibroblast growth factor 7 (FGF-7). Both growth factors are associated with the promotion of hair growth.

A further test deals with miRNA-31. Kind of test: miRNA-31 expression in secretomes of treated HFDPC. In kind it is cell-based, human. The conditions noted are these: in relation to the controls, FIG. 5(A),(C). An excerpt:
FIG. 5, related with Assay 1, is a graph showing the expression levels of miRNA-22 (FIG. 5(B)) and miRNA-31 (FIGS. 5(A) and (C)) in secretomas from HFDPC treated with either the peptide of SEQ ID NO: 6 or the cell-free supernatants of Curcuma longa.
From these secretomes of HFDPC, also the levels of the microRNAs miRNA-31 and miRNA-22 were detected (FIG. 5).

The subject of test [2] is males and females with hair-loss problems. Kind of test: In vivo test: capillary (hair) density by Trichoscan microphotography in volunteers. Also on record: species or system human. On the procedure:
(§1) Curcuma longa cell-free supernatant prepared as indicated in Example 2, as well as the peptide of SEQ ID NO: 6 in the PBS buffered fortifying solution 2× disclosed in Example 1 were tested in males and females (n=60, from 18 to 60 years old) with hair-loss problems. There were excluded those volunteers that received a capillary treatment three months before the assay, volunteers with cutanic pathologies at scalp (psoriasis, dermatitis, etc.) and allergy to compounds in the formulations.
(§2) Tested compounds were daily applied.
(§3) At time 0 (T0) there were taken scalp pictures (frontal and occipital parts), trichograms for determining the hair phase cycle (telogen or anagen phase), the combing test (number of hair lost during combing), and capillary density by microphotography with Trichoscan®.
(§4) At t=45 days and t=90 days, there were performed the combing test and the density tests (Trichoscan®)
(§5) At t=150 days again as in t=0.
(§6) Volunteers were separated in three groups. Group 1 receiving SEQ ID NO: 6 in the PBS buffered fortifying solution 2× disclosed in Example 1; Group 2 receiving Curcuma longa cell-free supernatant prepared as indicated in Example 2, and Group 3 the placebo.
Data are depicted in next Table 2 for capillary density. This table includes the average values determined of capillary density increase after evaluating in each volunteer the number of hairs in a 0.25 cm^2 are, capillary density at t=0 and t=90, and said increase in relation to t=0 value

For test [3] the test system is unchanged. Briefly: In vivo test: combing test (number of hair lost during combing) in volunteers. Further details: species or system human. How it is done:
as §1, §2, §3, §4, §5, §6
In particular, this table includes the average values determined for combing test (number of hair lost during combing). From the combing test results at t=0, t=45 and t=90 the percentage of reduction of hair loss is calculated contrasting values of t=0 with the values at t=45 and at t=90.

Where [4] appears, read: group mean, minimal and maximal values not considered.
Setting [5] is: group mean, combing test, minimal and maximal values not considered.
Setting [6] is: individual volunteers, negative = fewer hairs lost.

Where “and” joins values, the source holds several entries; their conditions need not be identical. Equal entries are not always repeated.

For the substance “CH3—C(O)—YIYT-NH2 (Ac-YIYT-NH2) [SEQ ID NO: 6, in vivo: dissolved 0.025% w/w in PBS buffered fortifying solution 2×]”, the “levels of insulin growth factor 1 (IGF-1)” value in test [1] was “higher levels were meaningful”. Besides, the “expression index of miRNA-31” value in the test on miRNA-31 is recorded as “increase of the expression index of miRNA-31”. In test [2] (concluded from the mean hair density increase at T150), the “new hairs appeared in the whole hair” value is recorded as no more than 14000 hairs. The substance also showed a Capillary density increase in test [2] (group average, t=90 in relation to t=0, daily application (Table 4)) of 14.66%. Also, in test [2] (setting [4]), the “HAIR DENSITY INCREASE T90, Mean” value is listed as 14.03% and the “HAIR DENSITY INCREASE T150, Mean” value is 19.27%. Moreover, the “HAIR DENSITY INCREASE T90” value in test [2] (individual volunteers, T90 vs T0) is 16.66% and 6.06% and 40.91% and 11.11% (2×) and 22.73% and 34.37% and 5.40% and 17.15% and 7.14% and 0.00% (3×) and −9.62%(*) and 70.01%(*) and 4.76% and 39.99% and 9.67% and 11.54%. Moreover, the “HAIR DENSITY INCREASE T150” value in test [2] (individual volunteers, T150 vs T0) was 24.99% and 6.06% and 36.36% and 14.63% and 18.18% and 21.87% and −5.41% and 2.86% and 35.71% and 0.00% (2×) and 14.81% and −7.69%(*) and 60.01% and 38.09% and 7.40% and 73.32%(*) and 9.67% and 42.31%. Also, in test [2] (individual volunteers, T90 days), the “HAIR DENSITY 1/cm2 T90” value was 111.38 1/cm2 and 139.22 1/cm2 and 123.31 1/cm2 (2×) and 119.33 1/cm2 (3×) and 107.4 1/cm2 (2×) and 171.04 1/cm2 and 155.13 1/cm2 and 163.09 1/cm2 and 115.35 1/cm2 (2×) and 186.95 1/cm2 and 135.24 1/cm2 (2×) and 87.51 1/cm2 and 83.53 1/cm2. For the same substance, the “Nr HAIRS/0.25 cm2 T90” value in test [2] (individual volunteers, T90 days, daily application) was 28 HAIRS/0.25 cm2 and 35 HAIRS/0.25 cm2 and 31 HAIRS/0.25 cm2 (2×) and 30 HAIRS/0.25 cm2 (3×) and 27 HAIRS/0.25 cm2 (2×) and 43 HAIRS/0.25 cm2 and 39 HAIRS/0.25 cm2 and 41 HAIRS/0.25 cm2 and 29 HAIRS/0.25 cm2 (2×) and 47 HAIRS/0.25 cm2 and 34 HAIRS/0.25 cm2 (2×) and 22 HAIRS/0.25 cm2 and 21 HAIRS/0.25 cm2. For the same substance, the “HAIR DENSITY 1/cm2 T150” value in test [2] (individual volunteers, T150 days) is 119.33 1/cm2 (2×) and 139.22 1/cm2 (2×) and 123.11 1/cm2 and 103.42 1/cm2 (2×) and 155.13 1/cm2 and 143.2 1/cm2 and 151.15 1/cm2 and 115.35 1/cm2 (3×) and 123.31 1/cm2 (2×) and 190.93 1/cm2 and 127.29 1/cm2 and 135.24 1/cm2 and 147.18 1/cm2. Also, the “Nr HAIRS/0.25 cm2 T150” value in test [2] (individual volunteers, T150 days, daily application) was 30 HAIRS/0.25 cm2 (2×) and 35 HAIRS/0.25 cm2 (2×) and 31 HAIRS/0.25 cm2 (3×) and 26 HAIRS/0.25 cm2 (2×) and 39 HAIRS/0.25 cm2 and 36 HAIRS/0.25 cm2 and 38 HAIRS/0.25 cm2 and 29 HAIRS/0.25 cm2 (3×) and 48 HAIRS/0.25 cm2 and 32 HAIRS/0.25 cm2 and 34 HAIRS/0.25 cm2 and 37 HAIRS/0.25 cm2. Also, the “reduction of the % of hair loss (in words)” value in test [3] (T45, T90 and T150 compared with T0) is given as “meaningful reduction of the % of hair loss”. Also, in test [3] (setting [5]), the “% REDUCTION OF HAIR LOSS T0 vs. T150, Mean” value is on record as 68.15%; the “% hair-loss reduction t = 0 vs t = 45, mean” value was found to be 40.48%; the “% hair-loss reduction t = 0 vs t = 90, mean” value worked out at 39.72%. In test [3] (individual volunteers, number of hair lost during combing, day 45), the “COMBING TEST T45” value is 7 and 54 and 23 and 13 and 88 and 184 and 34 and 58 and 60 and 62 and 50 and 10 and 31 and 28 and 101 and 66 and 24 and 14 and 46 and 92. In test [3] (individual volunteers, number of hair lost during combing, day 90), the “COMBING TEST T90” value is 6 and 88 and 28 (2×) and 36 and 154 and 60 and 50 and 61 and 84 and 27 and 12 and 45 and 118 and 91 and 23 and 22 and 59 and 62. Besides, the “COMBING TEST T150” value in test [3] (individual volunteers, number of hair lost during combing, day 150) was 5 and 13 (2×) and 19 (2×) and 22 and 24 and 18 and 12 and 20 (3×) and 23 and 29 and 95 and 42 and 167 and 16 and 36. For the same substance, in test [3] (setting [6]), the “% REDUCTION OF HAIR LOSS T0 VS. T45” value was −86.27% and −55.74% and −46.51% and −69.05% and 72.55% and 183.08(*) % and −43.33% and −44.23% and −47.83% and −78.32% and −30.56% and −98.13(*) % and −36.73% and −68.54% and −31.29% and −67.00% and −22.58% and −64.10% and −42.50% and 33.33%; the “% REDUCTION OF HAIR LOSS T0 VS. T90” value is −88.24% and −27.87% and −34.88% and −33.33% and −29.41% and 136.92(*) % and 0.00% and −51.92% and −46.96% and −70.63% and −62.50% and −97.76(*) % and −49.44% and −19.73% and −54.50% and −25.81% and −43.59% and −26.25% and −10.14%; the “% REDUCTION OF HAIR LOSS T0 vs. T150” value was −90.20% and −89.34% and −69.77% and −54.76% and −56.86% and −63.08% and −70.00% and −88.46% and −82.61% and −91.96(*) % and −59.72% and −82.24% and −78.65% and −71.43% and −16.50% and −35.48(*) % and −58.97% and −55.00% and −71.01%.
